Read-outs that look alike come from different tables or passages of the source.
Columns and labels:
p53 in HCT116 cells = experiment: p53 protein level by western blot; format: cell-based, human; details: HCT116, 2.5 μM, time-dependent
γH2AX foci in MEFs = experiment: γH2AX DNA damage foci, immunofluorescent staining; format: cell-based, mouse; details: 2.5 μM, 4 hrs
Description: MEFs or HCT116 cells were cultured on cover slips while Baf3 cells were cultured on slides coated by 0.1mg/ml poly-L-lysine, washed with phosphate-buffered saline (PBS) twice, and then fixed in 4% paraformaldehyde (PFA), which were permeabilized with 0.1% Triton X in PBS for 30 minutes at room temperature. The primary antibodies were diluted in PBS with 1% BSA (1:200). The slides were blocked (1% BSA in PBS) for 60 minutes at room temperature, incubated with primary antibodies overnight at 4°C, and followed by secondary antibody incubation for 60 min at RT. The slides were then mounted and observed under confocal microscope (Leica, Germany). Antibodies against γH2AX were from Bethyl Corporation.

DNA topoisomerase = experiment: in vitro DNA relaxation reaction with BaF3 cell lysates; format: biochemical, murine; details: 0, 2, 4 or 8 μM, pBluescript
Description: Figure 1 Identification of Bisindolylmaleimide IX as a genotoxic agent and a topoisomerase inhibitor A. The structures of Bisindolylmaleimide IX. B. Bisindolylmaleimide IX induced p53 expression in MEFs and HCT116 cells. Upper panel: primary MEFs were treated with 2.5 μM Bisindolylmaleimide IX for different periods of time and the cells were collected. The levels of p53 were determined by western blot. Bottom panel: HCT116 cells were treated with 2.5 μM Bisindolylmaleimide IX for different periods of time and the cells were collected. The levels of p53 were determined by western blot. C. Bisindolylmaleimide IX induced formation of DNA damage foci for γH2AX and p-Atm in MEFs. Primary MEFs were pretreated with caffeine or solvent for 2 hrs and then with 2.5 μM of Bisindolylmaleimide IX, Bisindolylmaleimide I, or Enzastaurin for 4 more hrs. γH2AX and p-Atm were detected with immunofluorescent staining using specific antibodies. D. Bisindolylmaleimide IX inhibited the topoisomerase activity assayed with pBluescript. DNA samples of pBluescript were incubated with cell lysates of MEFs, which were treated with 0, 4 or 8 μM Bisindolylmaleimide IX before being harvested. DNA samples were analyzed on agarose gels. […] DNA samples of pBluescript were incubated with cell lysates of BaF3 in the presence of 0, 2, 4 or 8 μM Bisindolylmaleimide IX. DNA samples were analyzed on agarose gels. […]

MEFs and HCT116 cells = experiment: Activation of Atm and Chk2 (DNA damage response), western blot; format: cell-based; details: 4 hrs, phosphorylation of Atm and Chk2
[1] = Precipitation in cell cultures; format: physicochemical
[2] = system: Erk in BCR-ABL-expressing BaF3 cells; experiment: Erk activation, western blot; format: cell-based, murine; details: BCR-ABL-expressing BaF3 cells but not control cells, 4 hrs
Description: (§1) Activation and expression of Erk, Mek1, and Raf were determined by western blot. B. Inhibition of Erk decreased the cell survival rates in BaF3 cells expressing BCR-ABL compared to control cells. […] C. […] N=3. Right panel: Western blot results showing that B-Raf was knocked down in these cells.

[3] = system: B-Raf in BCR-ABL positive BaF3 cells; experiment: B-Raf phosphorylation, western blot; format: cell-based, murine
Description: as §1

[4] = system: tumors derived from BCR-ABL-expressing BaF3 cells; experiment: Subcutaneous solid tumor model in nude mice; format: in vivo, mouse; details: 4 mg/kg
Description: (§2) For solid tumor models, the mice were injected with 4 mg / kg of Bisindolylmaleimide IX or solvent. The length (L) and width (W) of the tumor were measured by a digital caliper and expressed as tumor volume (0.5 L×W^2, mm^3). The body weight and the lifespan of the mice with intravenous injection of BaF3 cells were monitored every day. For B-Raf knockdown, lentivirus-mediated expressing shRNA against B-Raf was used.

[5] = system: tumors derived from T315I BCR-ABL-expressing BaF3 cells; experiment: Subcutaneous solid tumor model in nude mice; format: in vivo, mouse; details: 4 mg/kg
Description: as §2

K562 cells = experiment: Wst-1 cell survival assay; details: for IC50: Homo sapiens, read-out: IC50, cell survival
Description: We then evaluated the cytotoxic effect of Bisindolylmaleimide IX in MEFs and HCT116 cells. Different doses of Bisindolylmaleimide IX were applied to the cell cultures and cell survival rates and IC50 were determined with Wst-1 assay.
To measure cell survival rates after Bisindolylmaleimide IX treatment, cells were plated at 1×10^4 in 96 well plates and cultured for overnight, which were then treated with Bisindolylmaleimide IX for 48 hrs. Cell proliferation reagent WST-1 (Roche) was added to each well and was further incubated for 4 hrs at 37°C. The absorbance was measured against a control using microplate reader at 440 nm. The reference wavelength was 630 nm.

With CS(=O)(=O)O.Cn1cc(C2=C(c3cn(CCCSC(=N)N)c4ccccc34)C(=O)NC2=O)c2ccccc21 [Bisindolylmaleimide IX, 3-[1-[3-(Amidinothio)propyl]-3-indolyl]-4-(1-methyl-3-indolyl)-1H-pyrrole-2,5-dione methanesulfonate] the p53 expression (p53 in HCT116 cells) was “induce p53 expression”, the γH2AX foci formation (γH2AX foci in MEFs) was “numerous foci positive for γH2AX” and the “topoisomerase activity on addition to the in vitro DNA relaxation reaction” value (DNA topoisomerase) was “inhibit the topoisomerase activity”. The “lowest concentration able to activate the DNA damage response” value (MEFs and HCT116 cells) was 1.0 µM, the “concentrations at which the compound seemed to precipitate in cell cultures” value [1] was “greater than 10 μM” and the Erk activation [2] was “inhibited Erk activation”. For the same compound, the “phosphorylation of B-Raf” value [3] was “inhibited phosphorylation of B-Raf”, the growth of tumors [4] was “significantly inhibited growth of the tumors” and the growth of tumors [5] was “significantly inhibited growth of tumors”. For the same compound, the IC50 (K562 cells; K562, 24 h) was 3.72 µM, the IC50 (K562 cells; K562, 48 h) was 3.48 µM and the “cytotoxicity (in words)” value (K562 cells; K562, Wst-1) was “highly sensitive”.

— paper PMC5342526, “Identification of Bisindolylmaleimide IX as a potential agent to treat drug-resistant BCR-ABL positive leukemia” (Oncotarget, 2016)
